Results: patent US10407409B2, “6-(5-hydroxy-1H-pyrazol-1-yl)nicotinamide inhibitors of PHD” (Takeda Pharmaceutical Company Limited, priority 2013, dated 2019)

Assays:
[1] = system: HIF1a protein in H9c2 rat cardiomyocytes; test: Cell-based HIF-alpha stabilization assay (inhibition of PHD in cells); conditions: Rattus norvegicus, H9c2, 24 h, 24 hrs compound incubation, HIF1a protein by ELISA, read-out: Inhibition of PHD in cells (pEC50) (converted)
Procedure, shortened: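 HIF1a stabilization was measured by ELISA on lysates of H9c2 rat cardiomyocytes after 24 h exposure to 11 serial compound concentrations, expressed relative to the desferrioxamine maximum. Curve fits gave EC50. EC50pos denotes the concentration producing half the desferrioxamine maximal response.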

[2] = target: PHD2 enzyme (residues 181-417) (Homo sapiens (Human), UniProt Q9GZT9); test: Inhibition of PHD enzyme (LC/MS peptide hydroxylation assay); assay type: biochemical; conditions: PHD2 (residues 181-417) 5 nM, 60 min pre-incubation; -log(IC50), IC50 molar
Sequence of PHD2 enzyme (residues 181-417) (Q9GZT9 181-417): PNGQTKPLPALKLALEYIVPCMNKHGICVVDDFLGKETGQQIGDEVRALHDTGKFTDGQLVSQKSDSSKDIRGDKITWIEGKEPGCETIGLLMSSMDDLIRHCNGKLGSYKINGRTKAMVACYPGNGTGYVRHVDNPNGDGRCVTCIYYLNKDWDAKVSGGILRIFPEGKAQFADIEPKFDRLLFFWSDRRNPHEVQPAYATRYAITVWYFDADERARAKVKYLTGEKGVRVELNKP
Procedure, shortened: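 Hydroxylated peptide quantified by LC/MS after 60 min turnover of 1 uM biotinylated peptide with 2 uM 2-oxoglutarate and 1 mM ascorbate, stopped by excess tight-binding inhibitor. Beforehand, 5 nM enzyme and compound were preincubated 60 min at RT, pH 7.3 HEPES/KCl/TCEP/FeCl2/BSA buffer. Values as pIC50 (−log molar IC50).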

| SMILES | EC50 [1] [nM] | PHD Inhibition (pIC50) [2] |
| --- | --- | --- |
| Cc1cc(C#N)ccc1-c1cnn(-c2ccc(C(=O)NC3CCN(CC(F)(F)F)CC3)cn2)c1O [Example 302, 6-(4-(4-cyano-2-methylphenyl)-5-hydroxy-1H-pyrazol-1-yl)-N-(1-(2,2,2-trifluoroethyl)piperidin-4-yl)nicotinamide] | 288 | 8.41 |
| Cc1cc(C#N)ccc1-c1cnn(-c2ccc(C(=O)N(C)CCCN3CCCCC3)cn2)c1O [Example 303, 6-(4-(4-cyano-2-methylphenyl)-5-hydroxy-1H-pyrazol-1-yl)-N-methyl-N-(3-(piperidin-1-yl)propyl)nicotinamide] | 282 | 7.88 |
| CN(CCCN1CCCCC1)C(=O)c1ccc(-n2ncc(-c3ccc(C#N)cc3)c2O)nc1 [Example 304, 6-(4-(4-cyanophenyl)-5-hydroxy-1H-pyrazol-1-yl)-N-methyl-N-(3-(piperidin-1-yl)propyl)nicotinamide] | 2820 | 7.23 |
| CCN1CCN(C(=O)c2ccc(-n3ncc(-c4ccc(C#N)c(F)c4C)c3O)nc2)CC1 [Example 305, 4-(1-(5-(4-ethylpiperazine-1-carbonyl)pyridin-2-yl)-5-hydroxy-1H-pyrazol-4-yl)-2-fluoro-3-methylbenzonitrile] | 1320 | 8.27 |
| CCN1CCN(C(=O)c2ccc(-n3ncc(-c4cc(F)c(C#N)cc4C)c3O)nc2)CC1 [Example 306, 4-(1-(5-(4-ethylpiperazine-1-carbonyl)pyridin-2-yl)-5-hydroxy-1H-pyrazol-4-yl)-2-fluoro-5-methylbenzonitrile] | 4570 | 8.29 |
| Cc1c(-c2cnn(-c3ccc(C(=O)N4CCN(C5CC5)CC4)cn3)c2O)ccc(C#N)c1F [Example 307, 4-(1-(5-(4-cyclopropylpiperazine-1-carbonyl)pyridin-2-yl)-5-hydroxy-1H-pyrazol-4-yl)-2-fluoro-3-methylbenzonitrile] | 2340 | 8.39 |
| Cc1cc(C#N)c(F)cc1-c1cnn(-c2ccc(C(=O)N3CCN(C4CC4)CC3)cn2)c1O [Example 308, 4-(1-(5-(4-cyclopropylpiperazine-1-carbonyl)pyridin-2-yl)-5-hydroxy-1H-pyrazol-4-yl)-2-fluoro-5-methylbenzonitrile] | 6610 | 8.28 |
| CCN1CCN(C(=O)c2ccc(-n3ncc(-c4ccc(C#N)c(C)c4C)c3O)nc2)CC1 [Example 309, 4-(1-(5-(4-ethylpiperazine-1-carbonyl)pyridin-2-yl)-5-hydroxy-1H-pyrazol-4-yl)-2,3-dimethylbenzonitrile] | 2630 | 7.97 |
| Cc1c(C#N)ccc(-c2cnn(-c3ccc(C(=O)N4CCN(C5CC5)CC4)cn3)c2O)c1C [Example 310, 4-(1-(5-(4-cyclopropylpiperazine-1-carbonyl)pyridin-2-yl)-5-hydroxy-1H-pyrazol-4-yl)-2,3-dimethylbenzonitrile] | 3160 | 8.13 |
| Cc1cc(C#N)ccc1-c1cnn(-c2ccc(C(=O)N3CCN(CC(F)F)CC3)cn2)c1O [Example 311, 4-(1-(5-(4-(2,2-difluoroethyl)piperazine-1-carbonyl)pyridin-2-yl)-5-hydroxy-1H-pyrazol-4-yl)-3-methylbenzonitrile] | 1480 | 8.51 |
| Cc1cc(C#N)ccc1-c1cnn(-c2ccc(C(=O)N3CCN(CC(F)(F)F)CC3)cn2)c1O [Example 312, 4-(5-hydroxy-1-(5-(4-(2,2,2-trifluoroethyl)piperazine-1-carbonyl)pyridin-2-yl)-1H-pyrazol-4-yl)-3-methylbenzonitrile] | 1820 | 8.50 |
| Cc1cc(C#N)ccc1-c1cnn(-c2ccc(C(=O)N(C)CCCN(C)C)cn2)c1O [Example 313, 6-(4-(4-cyano-2-methylphenyl)-5-hydroxy-1H-pyrazol-1-yl)-N-(3-(dimethylamino)propyl)-N-methylnicotinamide] | 1120 | 7.59 |
| Cc1cc(C#N)ccc1-c1cnn(-c2ccc(C(=O)N3CCCC(N4CCCCC4)C3)cn2)c1O (centres unmarked) [Example 314, 4-(1-(5-([1,3′-bipiperidine]-1′-carbonyl)pyridin-2-yl)-5-hydroxy-1H-pyrazol-4-yl)-3-methylbenzonitrile] | 550 | 7.90 |
| Cc1cc(C#N)ccc1-c1cnn(-c2ccc(C(=O)N3CCC[C@@H](N(C)C)C3)cn2)c1O [Example 315, (R)-4-(1-(5-(3-(dimethylamino)piperidine-1-carbonyl)pyridin-2-yl)-5-hydroxy-1H-pyrazol-4-yl)-3-methylbenzonitrile] | 562 | 8.09 |
| COC1CCN(C(=O)c2ccc(-n3ncc(-c4ccc(C#N)c(F)c4C)c3O)nc2)CC1 [Example 316, 2-fluoro-4-(5-hydroxy-1-(5-(4-methoxypiperidine-1-carbonyl)pyridin-2-yl)-1H-pyrazol-4-yl)-3-methylbenzonitrile] | 1290 | 8.31 |
| Cc1c(-c2cnn(-c3ccc(C(=O)N4CC[C@@H](N(C)C)C4)cn3)c2O)ccc(C#N)c1F [Example 317, (R)-4-(1-(5-(3-(dimethylamino)pyrrolidine-1-carbonyl)pyridin-2-yl)-5-hydroxy-1H-pyrazol-4-yl)-2-fluoro-3-methylbenzonitrile] | 676 | 8.31 |
| Cc1c(-c2cnn(-c3ccc(C(=O)N4CC[C@H](N(C)C)C4)cn3)c2O)ccc(C#N)c1F [Example 318, (S)-4-(1-(5-(3-(dimethylamino)pyrrolidine-1-carbonyl)pyridin-2-yl)-5-hydroxy-1H-pyrazol-4-yl)-2-fluoro-3-methylbenzonitrile] | 708 | 8.35 |
| Cc1c(-c2cnn(-c3ccc(C(=O)N4CCC[C@@H](N(C)C)C4)cn3)c2O)ccc(C#N)c1F [Example 319, (R)-4-(1-(5-(3-(dimethylamino)piperidine-1-carbonyl)pyridin-2-yl)-5-hydroxy-1H-pyrazol-4-yl)-2-fluoro-3-methylbenzonitrile] | 537 | 8.17 |
| Cc1c(-c2cnn(-c3ccc(C(=O)N4CCC[C@H](N(C)C)C4)cn3)c2O)ccc(C#N)c1F [Example 320, (S)-4-(1-(5-(3-(dimethylamino)piperidine-1-carbonyl)pyridin-2-yl)-5-hydroxy-1H-pyrazol-4-yl)-2-fluoro-3-methylbenzonitrile] | 741 | 8.17 |
| Cc1c(-c2cnn(-c3ccc(C(=O)N4CC(N(C)C)C4)cn3)c2O)ccc(C#N)c1F [Example 321, 4-(1-(5-(3-(dimethylamino)azetidine-1-carbonyl)pyridin-2-yl)-5-hydroxy-1H-pyrazol-4-yl)-2-fluoro-3-methylbenzonitrile] | 589 | 8.40 |
| Cc1c(-c2cnn(-c3ccc(C(=O)N4CCN(C)CC4)cn3)c2O)ccc(C#N)c1F [Example 322, 2-fluoro-4-(5-hydroxy-1-(5-(4-methylpiperazine-1-carbonyl)pyridin-2-yl)-1H-pyrazol-4-yl)-3-methylbenzonitrile] | 933 | 8.26 |
| Cc1c(-c2cnn(-c3ccc(C(=O)N4CCCN(C5CC5)CC4)cn3)c2O)ccc(C#N)c1F [Example 323, 4-(1-(5-(4-cyclopropyl-1,4-diazepane-1-carbonyl)pyridin-2-yl)-5-hydroxy-1H-pyrazol-4-yl)-2-fluoro-3-methylbenzonitrile] | 1820 | 8.33 |
| Cc1c(-c2cnn(-c3ccc(C(=O)N4CCN(C)C5(CC5)C4)cn3)c2O)ccc(C#N)c1F [Example 324, 2-fluoro-4-(5-hydroxy-1-(5-(4-methyl-4,7-diazaspiro[2.5]octane-7-carbonyl)pyridin-2-yl)-1H-pyrazol-4-yl)-3-methylbenzonitrile] | 832 | 8.54 |
| Cc1c(-c2cnn(-c3ccc(C(=O)N4CCCC4)cn3)c2O)ccc(C#N)c1F [Example 325, 2-fluoro-4-(5-hydroxy-1-(5-(pyrrolidine-1-carbonyl)pyridin-2-yl)-1H-pyrazol-4-yl)-3-methylbenzonitrile] | 977 | 8.44 |
| COCCCN(C)C(=O)c1ccc(-n2ncc(-c3ccc(C#N)c(F)c3C)c2O)nc1 [Example 326, 6-(4-(4-cyano-3-fluoro-2-methylphenyl)-5-hydroxy-1H-pyrazol-1-yl)-N-(3-methoxypropyl)-N-methylnicotinamide] | 490 | 8.33 |
| Cc1c(-c2cnn(-c3ccc(C(=O)N4CCOCC4)cn3)c2O)ccc(C#N)c1F [Example 327, 2-fluoro-4-(5-hydroxy-1-(5-(morpholine-4-carbonyl)pyridin-2-yl)-1H-pyrazol-4-yl)-3-methylbenzonitrile] | 589 | 8.47 |
| CCN1CCN(C(=O)c2ccc(-n3ncc(-c4ccc(C#N)c(F)c4C)c3O)nc2)C[C@@H]1C [Example 328, (S)-4-(1-(5-(4-ethyl-3-methylpiperazine-1-carbonyl)pyridin-2-yl)-5-hydroxy-1H-pyrazol-4-yl)-2-fluoro-3-methylbenzonitrile] | 309 | 8.39 |
| Cc1c(-c2cnn(-c3ccc(C(=O)N4CCN(C)[C@@H](C)C4)cn3)c2O)ccc(C#N)c1F [Example 329, (S)-4-(1-(5-(3,4-dimethylpiperazine-1-carbonyl)pyridin-2-yl)-5-hydroxy-1H-pyrazol-4-yl)-2-fluoro-3-methylbenzonitrile] | 331 | 8.50 |
